Each compound was assayed against MetAP-2 (Homo sapiens, UniProt P50579) (assay: MetAP-2 activity measurement (coupled enzymatic reactions, substrate Met-Arg-Ser, photometric at 450 nm)). Details: read-out: IC50 enzyme (Inhibition of MetAP-2).
Assay type: biochemical
Method: MetAP-2 Activity Measurement
The MetAP-2 activity is determined by coupling enzymatic reactions. The tripeptide Met-Arg-Ser (MAS) is employed as substrate. The methionine liberated is firstly converted into Metox and H2O2 by L-aminooxidase (AAO). In the second step, the peroxidase (POD) with the aid of the H2O2 catalyses the oxidation of the leukodye dianisidine to dianisidineox, the increase of which is detected photometrically at 450 nm.
MetAP-2 activity can be recorded continuously as kinetics. The reaction scheme illustrates that one mol of dianisidineox is formed per mol of methionene. The MetAP-2 enzyme activity can therefore be calculated directly as Δ absorption per time unit. […] of the MetAP-2 activity (mol of Met/time unit) is possible with the aid of the dianisidineox extinction coefficient.
The change in extinction per time unit is depicted graphically and a slope calculation is carried out in the visually linear region of the reaction.

Chain of MetAP-2 (P50579 whole entry, species assumed): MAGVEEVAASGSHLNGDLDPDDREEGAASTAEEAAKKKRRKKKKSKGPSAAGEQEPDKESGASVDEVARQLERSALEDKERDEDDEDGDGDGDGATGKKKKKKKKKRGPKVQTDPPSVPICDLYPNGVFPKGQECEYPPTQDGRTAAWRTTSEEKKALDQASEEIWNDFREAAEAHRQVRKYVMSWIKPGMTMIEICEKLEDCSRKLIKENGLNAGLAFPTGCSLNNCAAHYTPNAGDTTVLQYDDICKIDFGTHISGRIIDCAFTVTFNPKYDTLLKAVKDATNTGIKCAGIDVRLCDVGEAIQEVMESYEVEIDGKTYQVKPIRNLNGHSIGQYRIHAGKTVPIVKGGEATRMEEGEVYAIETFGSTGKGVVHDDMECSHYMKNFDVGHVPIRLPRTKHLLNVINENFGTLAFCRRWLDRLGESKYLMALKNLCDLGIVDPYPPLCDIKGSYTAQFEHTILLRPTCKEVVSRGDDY

Question: How did the IC50 turn out when `O=CN(CCN1CCOCC1)Cc1ccc(OC[C@H]2CCCN2c2ncnc3[nH]cnc23)c2ccccc12` [A94, N-(2-Morpholin-4-ylethyl)-N-{4-[(R)-1-(9H-purin-6-yl)pyrrolidin-2-ylmethoxy]naphthalen-1-yl-methyl}formamide] was run?
Answer: 10 to 1000 nM

Question: Which IC50 does the source give for `c1ccc2c(OC[C@H]3CCCN3c3ncnc4[nH]cnc34)ccc(CNCCCN3CCOCC3)c2c1` [A95, (3-Morpholin-4-ylpropyl)-{4-[(R)-1-(9H-purin-6-yl)pyrrolidin-2-ylmethoxy]naphthalen-1-yl-methyl}amine] here?
Answer: 10 to 1000 nM

Question: For `O=C1c2cccc(OC[C@H]3CCCN3c3ncnc4[nH]cnc34)c2CC[C@@H]1Cc1c[nH]cn1` [A96, (R)-2-(1H-Imidazol-4-ylmethyl)-5-[(R)-1-(9H-purin-6-yl)pyrrolidin-ylmethoxy]-3,4-dihydro-2H-naphthalen-1-one], which IC50 is on record?
Answer: 10 to 1000 nM

Question: With `O=C1c2cccc(OC[C@H]3CCCN3c3ncnc4[nH]cnc34)c2CC[C@H]1Cc1c[nH]cn1` [A97, (S)-2-(1H-Imidazol-4-y!methyl)-5-[(R)-1-(9H-purin-6-yl)pyrrolidin-2-ylmethoxy]-3,4-dihydro-2H-naphthalen-1-one] as the compound, how does the IC50 read?
Answer: 10 to 1000 nM

Question: For `CC(=O)N(CCN1CCCCC1)Cc1ccc(OC[C@H]2CCCN2c2ncnc3[nH]cnc23)c2ccccc12` [A98, N-(2-Piperidin-1-ylethyl)-N-{4-[(R)-1-(9H-purin-6-yl)pyrrolidin-2-ylmethoxy]naphthalen-1-yl-methyl]acetamide], which IC50 is on record?
Answer: 10 to 1000 nM

Question: `CC(=O)N(Cc1ccn(C)n1)Cc1ccc(OC[C@H]2CCCN2c2ncnc3[nH]cnc23)c2ccccc12` [A99, N-(1-Methyl-1H-pyrazol-3-ylmethyl)-N-{4-[(R)-1-(9H-purin-6-yl)pyrrolidin-2-ylmethoxy]-naphthalen-1-ylmethyl}acetamide] was tested. Which IC50 did it give?
Answer: 10 to 1000 nM

Question: Which IC50 does the source give for `CC(=O)N(Cc1ccc(OC[C@H]2CCCN2c2ncnc3[nH]cnc23)c2ccccc12)CC(O)CO` (stereo partly drawn) [A100, N-(2,3-Dihydroxypropyl)-N-{4-[(R)-1-(9H-purin-6-yl)pyrrolidin-2-ylmethoxy]naphthalen-1-yl-methyl}acetamide] here?
Answer: 10 to 1000 nM

Question: Which IC50 does the source give for `O=CN(CCN1CCCCC1)Cc1ccc(OC[C@H]2CCCN2c2ncnc3[nH]cnc23)c2ccccc12` [A101, N-(2-Piperidin-1-ylethyl)-N-{4-[(R)-1-(9H-purin-6-yl)pyrrolidin-2-ylmethoxy]naphthalen-1-yl-methyl}formamide] here?
Answer: 10 to 1000 nM

Question: `Cn1ccc(CN(C=O)Cc2ccc(OC[C@H]3CCCN3c3ncnc4[nH]cnc34)c3ccccc23)n1` [A102, N-(1-Methyl-1H-pyrazol-3-ylmethyl)-N-{4-[(R)-1-(9H-purin-6-yl)pyrrolidin-2-ylmethoxy]-naphthalen-1-ylmethyl}formamide] was tested. Which IC50 did it give?
Answer: 10 to 1000 nM

Question: For `c1ccc(-c2nc3ccccc3s2)c(OC[C@H]2CCCN2c2ncnc3[nH]cnc23)c1` [A103, 6-[(R)-2-(2-Benzothiazol-2-ylphenoxymethyl)-pyrrolidin-1-yl]-9H-purine], which IC50 is on record?
Answer: 1000 to 10000 nM

Question: For `c1cc(OC[C@H]2CCCN2c2ncnc3[nH]cnc23)c2nccn2c1` [A104, 6-[(R)-2-(Imidazo[1,2-a]pyridin-8-yloxymethyl)-pyrrolidin-1-yl]-9H-purine], which IC50 is on record?
Answer: 1000 to 10000 nM

Question: Which IC50 does the source give for `FC(F)(F)c1cc(OC[C@H]2CCCN2c2ncnc3[nH]cnc23)c2cc(Cl)ccc2n1` [A105, 6-Chloro-4-[(R)-1-(9H-purin-6-yl)pyrrolidin-2-yl-methoxy]-2-trifluoromethylquinoline] here?
Answer: 10 to 1000 nM

Question: How did the IC50 turn out when `c1ccc(CN2CCN(c3ccc4cccc(OC[C@H]5CCCN5c5ncnc6[nH]cnc56)c4c3)CC2)cc1` [A106, 6-{(R)-2-[7-(4-Benzylpiperazin-1-yl)naphthalen-1-yloxymethyl]pyrrolidin-1-yI}-9H-purine] was run?
Answer: > 10000 nM

Question: `CN(C)c1ccc2cc(S(=O)(=O)O)cc(OC[C@H]3CCCN3c3ncnc4[nH]cnc34)c2c1` [A107, 6-Dimethylamino-4-[(R)-1-(9H-purin-6-yl)-pyrrolidin-2-ylmethoxy]naphthalene-2-sulfonic acid] was tested. Which IC50 did it give?
Answer: 1000 to 10000 nM

Question: `c1ccc2c(NC[C@H]3CCCN3c3ncnc4[nH]cnc34)cccc2c1` [A108, Naphthalen-1-yl[(R)-1-(9H-purin-6-yl)pyrrolidin-2-ylmethyl]amine] was tested. Which IC50 did it give?
Answer: > 10000 nM
